Here are results for two compounds from patent publication US9964543B2, “Selection of medicaments that modulate the function and activity of interleukin 13” (GLYCAN BIOSCIENCES LLC, priority 2007, dated 2018).

For one assay, the target named is T1, IL-13Rα1 (Homo sapiens, UniProt P78552).
T1 sequence (P78552 22-427): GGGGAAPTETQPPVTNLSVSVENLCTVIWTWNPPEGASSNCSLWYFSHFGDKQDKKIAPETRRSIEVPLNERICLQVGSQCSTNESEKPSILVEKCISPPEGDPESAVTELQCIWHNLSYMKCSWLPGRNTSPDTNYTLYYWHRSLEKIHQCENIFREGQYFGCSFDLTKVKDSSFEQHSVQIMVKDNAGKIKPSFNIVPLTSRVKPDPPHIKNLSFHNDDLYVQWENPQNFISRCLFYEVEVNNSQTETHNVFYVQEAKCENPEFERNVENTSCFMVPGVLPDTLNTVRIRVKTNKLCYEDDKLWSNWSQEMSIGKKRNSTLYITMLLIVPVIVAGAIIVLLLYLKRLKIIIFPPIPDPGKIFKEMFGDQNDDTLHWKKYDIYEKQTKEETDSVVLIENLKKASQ
The note with it: low-moderate affinity; read-out: affinity of IL-13Rα1 by itself for IL-13; cited from earlier work.

Assay [1] in a line: BIACORE binding of IL-13 proteins to immobilized heparin. The note with it: surface plasmon resonance. An excerpt: The optical phenomenon of surface plasmon resonance is used to monitor physical interactions between molecules. Passing a solution of a potential protein ligand (e.g. IL-13) over a sensor surface to which a target (e.g. heparin) is coupled monitors the real-time binding of protein ligands to the immobilized target. Detection is achieved by measuring refractive index changes very close to the sensor surface. When the refractive index is altered, the angle at which plasmon resonance occurs changes and this change directly correlates with the amount of protein interacting with the surface. A BIACORE 2000 sensor chip is conveniently used. It is very sensitive and its microfiuidics ensures that only small amounts of material are required.
Biotinylated heparin is immobilized on the biosensor chip. […] Solutions containing potential protein ligands of interest are injected over the sensor chip surface, and the binding is measured in real time (Femig, In: Proteoglycan protocols, Ed. R. V. Iozzo, Humana Press, Totowa, N.J., USA, 2001). Bacterially expressed recombinant human IL-13 (rhIL-13) readily binds to heparin immobilized by this method. […]
Site directed mutagenesis was performed on IL-13. […] Mutant IL-13 proteins were examined for their ability to bind heparin immobilized on a biosensor chip and binding was assessed using a BIACORE 2000 sensor chip.
In general terms: In SPR one partner is held on a chip, and binding of the other changes the refractive index at the surface.

For another assay, the target named is T2, IL-13 Rα2 (Homo sapiens, UniProt Q14627).
T2 sequence (Q14627 27-380): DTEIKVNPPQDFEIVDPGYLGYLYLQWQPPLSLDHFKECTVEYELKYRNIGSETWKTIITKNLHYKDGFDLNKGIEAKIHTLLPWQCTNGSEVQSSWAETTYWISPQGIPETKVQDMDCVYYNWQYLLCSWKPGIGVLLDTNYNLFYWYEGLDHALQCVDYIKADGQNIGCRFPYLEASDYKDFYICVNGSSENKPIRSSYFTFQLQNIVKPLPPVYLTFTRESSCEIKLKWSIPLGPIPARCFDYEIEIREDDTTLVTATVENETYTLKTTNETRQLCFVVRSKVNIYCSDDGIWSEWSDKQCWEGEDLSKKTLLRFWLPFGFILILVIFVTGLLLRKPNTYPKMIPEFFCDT
The note with it: high affinity; cited from earlier work.

The test system of a further assay is TF-1 cells. The assay can be described thus: TF-1 cell proliferation induced by IL-13 proteins. It counts as cell-based, human. The protocol:
The ability of sulfated xylans to inhibit IL-13 mediated cell proliferation is size dependent. These experiments utilized the TF-1 cell line from which the TF1.8 cells were derived. The assay is performed as described above with the TF1.8 cells the differences being the concentration of IL-13 required for cell growth and the fact that cell number is determined using a dye. Briefly, proliferation assays are carried out in 96-well microplates suitable for such assays. Cells are washed to remove any cytokine in the growth medium and then resuspended in RPMI/5% w/v FCS and routinely 2.5×10^4 cells are added to microplate wells that contain either no IL-13 (negative control) or various dilutions of IL-13. When the effect of the different sized sulfated xylans was measured, the wells also contained various concentrations of these molecules and the IL-13 concentration was held constant at 2.5 ng/ml. The cells proliferated for 48 hours, after which the number of cells present was quantified by staining with […] of the AQUEOUS ONE dye for 3 hours and then absorbance was read at 490 nm.
The IL-13R111 wild type and the IL-13Q111 variant are shown for comparison.
Details of the assay are given in Example 6.

In assay [2] the test system is IL-13 dependent proliferation of TF-1.8 cells. The assay can be described thus: IL-13 dependent proliferation of TF-1.8 cells (luciferase). It counts as cell-based, human. The note with it: 10 μg/ml, titration of IL-13 (FIG. 2A). An excerpt: Heparin inhibited the proliferation of a human IL-13 responsive cell line. This occurs at very low doses and is not due to a toxic effect of the heparin because other, similarly sulfated polysaccharides, at the same concentrations of IL-13 and polysaccharide have no effect. These experiments utilize the TF-1.8 cells. TF-1.8 cells are a subclone of the TF-1 cells that have been selected for growth in IL-4, and because IL-4 and IL-13 share a receptor these cells are also responsive to IL-13. TF-1 cells were originally established from a bone marrow sample from a person with severe pancytopenia. […]
TF-1.8 cells have been transfected with the firefly luciferase gene contained in the expression vector, pPGK-puromycin-luciferase (Coombe et al, J. Immunol. Methods 215:145-150, 1998). […] The cells are counted with a Coulter Z2 Particle Counter and Size Analyzer (Coulter Electronics, England) and routinely 2.5×10^4 cells are added to microplate wells that contain either no IL-13 (negative control) or various dilutions of IL-13. When the effect of PPS, or other sulfated polysaccharides is to be measured, the wells also contain various concentrations of these molecules. […]
PPS inhibited the proliferation of a human IL-13 responsive cell line. […] When the effect of PPS is to be measured, the wells also contain various concentrations of this molecule. […]

Take “IL-13 WT (R111): wild type human IL-13 with arginine in the 111 position; 1IJZ.pdb monomer in docking”: the results for the Kd with IL-13Rα1 and with IL-13 Rα2 were 2 to 10 nM and 0.5 to 1.2 nM, respectively. Further, the results for the “binding to heparin immobilized on BIACORE sensor chip” value in assay [1] (listed as rhIL-13) and in assay [1] (listed as wild type IL-13) were “readily binds” and “binds heparin more strongly”, respectively. Besides, the “Concentration of IL-13 required for 50% TF-1 cell proliferation ED50 ave” value in the assay on TF-1 cells turned out to be 1.2 ng/mL. In addition, in the assay with TF-1 cells (FIG. 7A), the “cell proliferative activity in the TF-1 cell assay” value was “comparable”.
For the compound `O=S(=O)(O)OC[C@H]1O[C@@](COS(=O)(=O)O)(O[C@H]2O[C@H](COS(=O)(=O)O)[C@@H](OS(=O)(=O)O)[C@H](OS(=O)(=O)O)[C@H]2OS(=O)(=O)O)[C@@H](OS(=O)(=O)O)[C@@H]1OS(=O)(=O)O` [sucrose octasulfate], in assay [2], the “inhibition of IL-13 mediated cell proliferation” value is given as “very little inhibitory activity”.
